In ChEMBL document CHEMBL5291721, “A preclinical secondary pharmacology resource illuminates target-adverse drug reaction associations of marketed drugs” (Nat Commun, 2023):

Columns and labels:
[1] = target: T1, Peroxisome proliferator-activated receptor gamma (Homo sapiens, UniProt P37231); assay type: functional
T1 sequence (P37231 whole entry): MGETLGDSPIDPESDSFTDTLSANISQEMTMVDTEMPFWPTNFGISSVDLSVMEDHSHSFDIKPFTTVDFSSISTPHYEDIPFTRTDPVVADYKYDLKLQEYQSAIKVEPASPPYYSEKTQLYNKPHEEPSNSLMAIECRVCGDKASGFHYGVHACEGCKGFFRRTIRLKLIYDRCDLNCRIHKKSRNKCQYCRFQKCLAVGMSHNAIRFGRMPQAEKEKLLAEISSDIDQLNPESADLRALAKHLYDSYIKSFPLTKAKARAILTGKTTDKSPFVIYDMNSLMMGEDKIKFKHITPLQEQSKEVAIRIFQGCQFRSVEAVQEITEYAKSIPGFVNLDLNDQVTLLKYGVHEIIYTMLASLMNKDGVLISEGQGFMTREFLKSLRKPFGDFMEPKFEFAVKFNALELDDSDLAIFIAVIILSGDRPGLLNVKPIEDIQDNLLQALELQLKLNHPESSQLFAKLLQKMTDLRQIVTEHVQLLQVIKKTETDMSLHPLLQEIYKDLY

[2] = target: T2, Endothelin receptor type B (Homo sapiens, UniProt P24530)
T2 sequence (P24530 whole entry): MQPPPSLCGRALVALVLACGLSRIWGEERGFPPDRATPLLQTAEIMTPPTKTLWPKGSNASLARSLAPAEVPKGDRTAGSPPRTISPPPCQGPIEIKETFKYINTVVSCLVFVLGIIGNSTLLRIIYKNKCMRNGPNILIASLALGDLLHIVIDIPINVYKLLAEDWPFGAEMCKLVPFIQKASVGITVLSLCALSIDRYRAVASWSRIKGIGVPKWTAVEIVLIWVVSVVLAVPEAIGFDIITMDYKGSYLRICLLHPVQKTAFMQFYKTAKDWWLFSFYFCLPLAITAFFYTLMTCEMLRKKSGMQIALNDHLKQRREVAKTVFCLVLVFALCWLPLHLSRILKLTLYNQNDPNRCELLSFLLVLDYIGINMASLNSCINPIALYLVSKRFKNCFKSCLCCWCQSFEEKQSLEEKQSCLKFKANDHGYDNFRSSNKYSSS

B1 bradykinin receptor = target: T3, B1 bradykinin receptor (Homo sapiens, UniProt P46663)
T3 sequence (P46663 whole entry): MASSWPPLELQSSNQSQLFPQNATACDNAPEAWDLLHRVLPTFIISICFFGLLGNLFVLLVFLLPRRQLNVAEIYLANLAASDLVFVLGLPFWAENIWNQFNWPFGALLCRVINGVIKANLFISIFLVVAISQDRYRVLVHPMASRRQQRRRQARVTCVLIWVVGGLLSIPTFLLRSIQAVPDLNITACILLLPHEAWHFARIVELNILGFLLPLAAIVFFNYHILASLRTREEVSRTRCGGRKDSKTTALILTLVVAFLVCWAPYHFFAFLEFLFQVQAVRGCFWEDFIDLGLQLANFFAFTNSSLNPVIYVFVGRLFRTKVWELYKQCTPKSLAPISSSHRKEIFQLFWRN

[3] = target: Epidermal growth factor receptor (Homo sapiens, UniProt P00533); assay type: functional
Chain of Epidermal growth factor receptor (P00533 whole entry): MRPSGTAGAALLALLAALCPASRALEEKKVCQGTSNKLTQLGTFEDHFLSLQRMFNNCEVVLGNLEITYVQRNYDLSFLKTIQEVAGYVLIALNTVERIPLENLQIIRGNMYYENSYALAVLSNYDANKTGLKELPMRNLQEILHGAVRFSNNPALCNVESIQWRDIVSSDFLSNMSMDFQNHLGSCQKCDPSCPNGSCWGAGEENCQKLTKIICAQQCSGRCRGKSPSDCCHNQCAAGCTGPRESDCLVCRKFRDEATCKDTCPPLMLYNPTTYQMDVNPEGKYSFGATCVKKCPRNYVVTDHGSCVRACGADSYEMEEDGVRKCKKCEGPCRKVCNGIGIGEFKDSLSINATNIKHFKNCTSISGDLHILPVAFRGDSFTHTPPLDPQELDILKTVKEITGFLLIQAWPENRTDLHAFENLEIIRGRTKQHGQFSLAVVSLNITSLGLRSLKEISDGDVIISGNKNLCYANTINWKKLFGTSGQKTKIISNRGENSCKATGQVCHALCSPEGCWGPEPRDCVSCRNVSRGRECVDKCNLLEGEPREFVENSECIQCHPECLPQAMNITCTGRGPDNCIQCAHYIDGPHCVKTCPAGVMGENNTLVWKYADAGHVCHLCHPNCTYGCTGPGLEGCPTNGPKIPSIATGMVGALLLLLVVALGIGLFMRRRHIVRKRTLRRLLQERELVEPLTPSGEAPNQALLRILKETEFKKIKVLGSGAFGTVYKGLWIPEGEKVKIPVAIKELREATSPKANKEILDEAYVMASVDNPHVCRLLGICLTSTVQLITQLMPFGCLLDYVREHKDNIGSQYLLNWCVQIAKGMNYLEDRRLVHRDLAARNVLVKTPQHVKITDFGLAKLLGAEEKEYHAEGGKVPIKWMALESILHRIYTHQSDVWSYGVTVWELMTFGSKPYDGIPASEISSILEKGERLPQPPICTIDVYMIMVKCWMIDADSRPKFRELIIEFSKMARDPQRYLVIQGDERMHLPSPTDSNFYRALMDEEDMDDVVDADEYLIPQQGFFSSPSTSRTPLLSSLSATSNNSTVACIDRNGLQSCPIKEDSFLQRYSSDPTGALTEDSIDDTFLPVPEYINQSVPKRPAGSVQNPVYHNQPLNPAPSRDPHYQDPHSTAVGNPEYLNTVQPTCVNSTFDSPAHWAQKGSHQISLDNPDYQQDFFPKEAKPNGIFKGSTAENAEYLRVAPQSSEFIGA

[4] = target: T4, Muscarinic acetylcholine receptor M2 (Homo sapiens, UniProt P08172)
T4 sequence (P08172 whole entry): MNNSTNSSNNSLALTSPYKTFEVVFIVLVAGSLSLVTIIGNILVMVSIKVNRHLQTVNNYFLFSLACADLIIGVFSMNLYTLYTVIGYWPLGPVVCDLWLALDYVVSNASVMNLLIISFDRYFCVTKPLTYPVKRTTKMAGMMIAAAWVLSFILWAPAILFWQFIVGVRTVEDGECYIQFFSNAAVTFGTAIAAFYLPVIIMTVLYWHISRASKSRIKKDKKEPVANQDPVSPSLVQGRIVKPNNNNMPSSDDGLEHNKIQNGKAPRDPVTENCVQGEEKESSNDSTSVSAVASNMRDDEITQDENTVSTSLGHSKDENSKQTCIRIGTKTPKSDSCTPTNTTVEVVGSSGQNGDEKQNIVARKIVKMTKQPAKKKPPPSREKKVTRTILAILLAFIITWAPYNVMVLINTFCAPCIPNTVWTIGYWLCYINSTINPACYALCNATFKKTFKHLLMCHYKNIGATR

D(4) dopamine receptor = target: T5, D(4) dopamine receptor (Homo sapiens, UniProt P21917)
T5 sequence (P21917 whole entry): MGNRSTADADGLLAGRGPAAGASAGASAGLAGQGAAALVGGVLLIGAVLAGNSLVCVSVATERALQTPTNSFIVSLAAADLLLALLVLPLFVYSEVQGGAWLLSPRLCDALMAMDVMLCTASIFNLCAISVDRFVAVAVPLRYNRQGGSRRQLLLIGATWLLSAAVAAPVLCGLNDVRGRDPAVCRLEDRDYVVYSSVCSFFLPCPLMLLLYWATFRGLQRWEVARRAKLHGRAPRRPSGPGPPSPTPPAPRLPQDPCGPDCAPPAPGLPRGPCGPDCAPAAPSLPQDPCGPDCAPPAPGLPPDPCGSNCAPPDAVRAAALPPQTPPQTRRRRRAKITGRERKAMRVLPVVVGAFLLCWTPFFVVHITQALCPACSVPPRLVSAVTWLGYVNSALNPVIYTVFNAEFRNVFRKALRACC
Note: assay procedure not described here.

| SMILES | AC50 [1] | AC50 [2] | AC50 (B1 bradykinin receptor) | AC50 [3] | AC50 [4] | AC50 (D(4) dopamine receptor) |
| --- | --- | --- | --- | --- | --- | --- |
| O=C1Nc2ccc(Cl)cc2[C@@](C#CC2CC2)(C(F)(F)F)O1 [EFAVIRENZ] | > 30 µM |  |  |  |  |  |
| CO[C@H]1C[C@@H]2CC[C@@H](C)[C@@](O)(O2)C(=O)C(=O)N2CCCC[C@H]2C(=O)O[C@H]([C@H](C)C[C@@H]2CC[C@@H](O)[C@H](OC)C2)CC(=O)[C@H](C)/C=C(\C)[C@@H](O)[C@@H](OC)C(=O)[C@H](C)C[C@H](C)/C=C/C=C/C=C/1C [SIROLIMUS] |  | > 30 µM | > 30 µM |  |  |  |
| C1CCC(C(CC2CCCCN2)C2CCCCC2)CC1 (centres undefined) [PERHEXILINE] | > 30 µM |  |  | > 30 µM |  |  |
| Cc1cn([C@H]2C=C[C@@H](CO)O2)c(=O)[nH]c1=O [STAVUDINE] |  | > 30 µM | > 30 µM |  | > 10 µM | > 10 µM |
| CCC(C)n1ncn(-c2ccc(N3CCN(c4ccc(OCC5COC(Cn6cncn6)(c6ccc(Cl)cc6Cl)O5)cc4)CC3)cc2)c1=O (centres undefined) [ITRACONAZOLE] |  | > 30 µM | > 30 µM |  | > 10 µM | > 10 µM |
| Cc1ccc(-c2cc(C(F)(F)F)nn2-c2ccc(S(N)(=O)=O)cc2)cc1 [CELECOXIB] |  | > 30 µM | > 30 µM |  | > 10 µM | > 10 µM |
| Clc1ccc2nsnc2c1NC1=NCCN1 [TIZANIDINE] |  | > 30 µM | > 30 µM |  | > 10 µM |  |
| CS(=O)(=O)c1ccc(C2=C(c3ccccc3)C(=O)OC2)cc1 [ROFECOXIB] |  | > 30 µM | > 30 µM |  | > 10 µM | > 10 µM |
| O=C(O[C@H]1C[C@H]2CC[C@@H](C1)[N+]21CCCC1)C(O)(c1ccccc1)c1ccccc1 [TROSPIUM] |  |  |  |  | 0.026 µM |  |
| CNC1Cc2ccccc2N(C)c2ccccc21 (centres undefined) [METAPRAMINE] | > 30 µM |  |  | > 30 µM |  |  |
| C[C@]12CCC(=O)C=C1CC[C@@H]1[C@@H]2[C@@H](O)C[C@@]2(C)[C@H]1CC[C@]2(O)C(=O)CO [HYDROCORTISONE] |  | > 30 µM | > 30 µM |  | > 10 µM | > 10 µM |
| Cn1nnc2c(C(N)=O)ncn2c1=O [TEMOZOLOMIDE] | > 30 µM | > 30 µM | > 30 µM | > 30 µM | > 10 µM | > 10 µM |
| CC[C@H]1OC(=O)[C@H](C)[C@@H](O[C@H]2C[C@@](C)(OC)[C@@H](O)[C@H](C)O2)[C@H](C)[C@@H](O[C@@H]2O[C@H](C)C[C@H](N(C)C)[C@H]2O)[C@](C)(O)C[C@@H](C)CN(C)[C@H](C)[C@@H](O)[C@]1(C)O [AZITHROMYCIN] |  | > 30 µM | > 30 µM |  | > 10 µM | > 10 µM |
| NCC(CC(=O)O)c1ccc(Cl)cc1 (centres undefined) [BACLOFEN] | > 30 µM | > 30 µM | > 30 µM | > 30 µM | > 10 µM | > 10 µM |
| c1ccc([C@H]2CN3CCSC3=N2)cc1 [LEVAMISOLE] | > 30 µM |  |  | > 30 µM |  |  |
